Test [1] concerns Kapillaren. The settings on record: conclusion from morphometry (Tables 11 and 12); controls = 100 %. The text has this:
Mit Hilfe des Punktzählverfahrens (BUNTROCK et al: Exper. Pathol. 21 (1982) 62-67) wurden die prozentualen Volumenanteile der Kapillaren (VVCAP), unterteilt nach Endothelzellen (VVEC), Endothelzellkerne (VVNEC), Endothelsellzytoplasma (VVCYT) einerseits und Kapillarlumen (VVCAPL) andererseits bestimmt. Die Kontrollen wurden wiederum mit 100 % festgelegt.
Die Ergebnisse sind in der Tabelle 12 dargestellt.

Test [2] relates to Endothelzellen. The settings on record: versus rats treated with isotonic saline (= 100 %); treatment as in Example 1.
Procedure: Unter die Rückenhaut von 2 Monate alten Ratten mit einem Körpergewicht von 220 bis 270 g werden Polyvinylringe mit einem Basisdurchmesser von 19 mm unter sterilen Kautelen implantiert (Test nach RUDAS, modifiziert nach BECK, WIEGERS-HAUSEN und JUNG, Acta bio. med. Germ. 13, (1964)).
Der Ring liegt auf der Fascis der Rückenmuskulatur. Am Operationstag werden je 1,0 ml sterile, isotone Kochsalzlösung (Kontrolle) bzw. die gleiche Menge an Kochsalzlösung mit den darin enthaltenen Wirkstoffen appliziert. Die Wunde der Rückenhaut über dem Ring wird danach verschlossen. Am 2. bzw. am 2., 4. und 6. Tag post operationem (p. op.) erfolgen nochmalige Injektionen durch die Haut in den Ring, wobei jeweils 0,2 ml sterile, isotone Kochsalzlösung mit jeweils 20 % der am Operationstag gegebenen Wirkstoffmenge appliziert werden. Im Fall der Kontrolle erfolgt eine Injektion von 0,2 ml Kochsalzlösung ohne Wirkstoff.
Als Kontrolltiere dienten mit isotoner Kochsalzlösung behandelte Ratten, deren Zählwerte gleich 100 % gesetzt wurden. […] Das Vorgehen der Behandlung entspricht dem Beispiel 1.
For test [3], the system named is experimentell gesetzte Wunden. The settings on record: intraperitoneal, 20 mg/kg Ratte; cited from earlier work.
In test [4] the test system is durch Zahnextraktion entstandene Wunden. The following applies: local application (Salbe, Lutschtabletten); cited from earlier work.

“N-4-Nitrobenzylocarbonyl-lysyl-Prolin-Hydrochlorid [Lys[Z(NO2)]-Pro·HCl]”: in test [1], the “Angiogenese fördernde Wirkung” value is given as “Angiogenese fördernde Wirkung”. Also, the “Anzahl der Endothelzellkerne der Kapillaren” value in test [2] is recorded as “signifikante Zunahme”.

Take ß-Alanyl-L-Histidin [L-Carnosin]: the Wundheilung result in test [3] and in test [4] was “günstig beeinflussen” in each case.

The values are drawn from patent publication EP0165492B1, “Process for manufacturing preparations promoting wound healing, and such preparations” (BERLIN-CHEMIE Aktiengesellschaft, priority 1984, dated 1992).
